Results reported in PubChem BioAssay AID330 (DTP/NCI, 2004).
Where “and” joins values, the source holds several entries; their conditions need not be identical. Equal entries are not always repeated. Inconclusive results and toxic doses are left out. Rule for the calls: active = survival T/C of 150% or more; inactive = T/C below 125% in these data.

Tested on: P388 leukemia ip, CD2F1 mice, survival T/C
Assay: NCI In Vivo Anticancer Drug Screen. Data for tumor model P388 Leukemia (intraperitoneal) in CD2F1 (CDF1) mice
Details: endpoint: median survival time, higher = longer survival
Summary of the method: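 Mice carrying the transplanted tumor received test compound or vehicle. Survival was recorded in each group, and the value is the treated-group measurement divided by that of the vehicle-treated control group.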

[1] = dose: 50.0 mg/kg/injection, schedule: Q01DX009 (ip), vehicle: Klucel (hydroxypropylcellulose) (HPC)
[2] = dose: 100.0 mg/kg/injection, schedule: Q01DX009 (ip), vehicle: Klucel (hydroxypropylcellulose) (HPC)
[3] = dose: 200.0 mg/kg/injection, schedule: Q01DX009 (ip), vehicle: Klucel (hydroxypropylcellulose) (HPC)
[4] = dose: 60.0 mg/kg/injection, schedule: Q01DX005 (ip), vehicle: Klucel (hydroxypropylcellulose) (HPC)
[5] = dose: 120.0 mg/kg/injection, schedule: Q01DX005 (ip), vehicle: Klucel (hydroxypropylcellulose) (HPC)
[6] = dose: 240.0 mg/kg/injection, schedule: Q01DX005 (ip), vehicle: Klucel (hydroxypropylcellulose) (HPC)
[7] = dose: 50.0 mg/kg/injection, schedule: Q01DX009 (ip), vehicle: saline
[8] = dose: 100.0 mg/kg/injection, schedule: Q01DX009 (ip), vehicle: saline
[9] = dose: 200.0 mg/kg/injection, schedule: Q01DX009 (ip), vehicle: saline
[10] = dose: 60.0 mg/kg/injection, schedule: Q01DX005 (ip), vehicle: saline with Tween-80
[11] = dose: 120.0 mg/kg/injection, schedule: Q01DX005 (ip), vehicle: saline with Tween-80
[12] = dose: 240.0 mg/kg/injection, schedule: Q01DX005 (ip), vehicle: saline with Tween-80
[13] = dose: 50.0 mg/kg/injection, schedule: Q01DX005 (ip), vehicle: saline with Tween-80
[14] = dose: 100.0 mg/kg/injection, schedule: Q01DX005 (ip), vehicle: saline with Tween-80
[15] = dose: 200.0 mg/kg/injection, schedule: Q01DX005 (ip), vehicle: saline with Tween-80
[16] = dose: 50.0 mg/kg/injection, schedule: Q01DX005 (ip), vehicle: Klucel (hydroxypropylcellulose) (HPC)
[17] = dose: 100.0 mg/kg/injection, schedule: Q01DX005 (ip), vehicle: Klucel (hydroxypropylcellulose) (HPC)
[18] = dose: 200.0 mg/kg/injection, schedule: Q01DX005 (ip), vehicle: Klucel (hydroxypropylcellulose) (HPC)

Measured: T/C

O=C(c1cccs1)c1ccc(Cl)cc1Cl
inactive: [1] 107 % of control | [2] 103 % of control | [3] 104 % of control

O=C(O)CNC(CO)C(=O)O (centres undefined)
inactive: dose: 25.0 mg/kg/injection, schedule: Q01DX005 (ip), vehicle: water 100 % of control | dose: 50.0 mg/kg/injection, schedule: Q01DX005 (ip), vehicle: water 100 % of control | dose: 100.0 mg/kg/injection, schedule: Q01DX005 (ip), vehicle: water 95 % of control | dose: 200.0 mg/kg/injection, schedule: Q01DX005 (ip), vehicle: water 89 % of control

CC1(C)O[S+](c2ccccc2)c2ccccc21 (centres undefined)
inactive: [1] 102 % of control | [2] 107 % of control | [3] 108 % of control

CCOC(=O)C(C)/C(C)=N\NC(N)=S (centres undefined)
inactive: [4] 100 % of control | [5] 100 % of control | [6] 100 % of control

N#CC(C#N)=Cc1ccc(N2CCOCC2)cc1
inactive: [7] 90 % of control | [8] 97 % of control | [9] 90 % of control

CCOC(=O)C1=C(NC(C)=O)Sc2ccccc2C1
inactive: [7] 94 % of control | [8] 103 % of control | [9] 92 % of control

O=C1CSC(=S)N1c1ccc2c(c1)OCO2
inactive: [10] 92 % of control | [11] 90 % of control | [12] 90 % of control

CCS/C(C#N)=C(/C)c1ccccc1
inactive: [13] 101 % of control | [14] 106 % of control | [15] 108 % of control

COCCCN1CC(=O)N2Cc3ccccc3CN2C(=O)C1
inactive: [13] 98 % of control | [14] 98 % of control | [15] 103 % of control

CC(OC(=O)Nc1cccc2ccccc12)C(N)=O (centres undefined)
inactive: dose: 100.0 mg/kg/injection, schedule: Q04DX003 (ip), vehicle: Klucel (hydroxypropylcellulose) (HPC) 91 % of control | dose: 200.0 mg/kg/injection, schedule: Q04DX003 (ip), vehicle: Klucel (hydroxypropylcellulose) (HPC) 95 % of control | dose: 400.0 mg/kg/injection, schedule: Q04DX003 (ip), vehicle: Klucel (hydroxypropylcellulose) (HPC) 96 % of control

O=Cc1cc(/C(N=Nc2ccccc2C(=O)O)=N/Nc2ccccc2C(=O)O)nc2[nH]c(=O)ccc12
inactive: [16] 95 % of control | [17] 100 % of control

ClC(Cl)Oc1ccccc1
inactive: dose: 10.0 mg/kg/injection, schedule: Q01DX009 (ip), vehicle: saline with Tween-80 97 % of control | dose: 20.0 mg/kg/injection, schedule: Q01DX009 (ip), vehicle: saline with Tween-80 106 % of control | dose: 40.0 mg/kg/injection, schedule: Q01DX009 (ip), vehicle: saline with Tween-80 103 % of control

CCN(CC)Cc1cc(Nc2nc(/C=C/c3ccc(Cl)cc3)nc(Cl)c2-c2ccc(Cl)cc2)ccc1O
inactive: dose: 25.0 mg/kg/injection, schedule: Q01DX001 (ip), vehicle: suspension in saline 107 % of control | dose: 50.0 mg/kg/injection, schedule: Q01DX001 (ip), vehicle: suspension in saline 111 % of control | dose: 50.0 mg/kg/injection, schedule: Q01DX005 (ip), vehicle: saline 111 % of control | dose: 100.0 mg/kg/injection, schedule: Q01DX001 (ip), vehicle: saline 103 % of control | dose: 100.0 mg/kg/injection, schedule: Q01DX001 (ip), vehicle: suspension in saline 100 % of control and 108 % of control | dose: 100.0 mg/kg/injection, schedule: Q01DX005 (ip), vehicle: saline 116 % of control | dose: 200.0 mg/kg/injection, schedule: Q01DX001 (ip), vehicle: saline 103 % of control | dose: 200.0 mg/kg/injection, schedule: Q01DX001 (ip), vehicle: suspension in saline 108 % of control and 97 % of control | dose: 200.0 mg/kg/injection, schedule: Q01DX005 (ip), vehicle: saline 103 % of control | dose: 400.0 mg/kg/injection, schedule: Q01DX001 (ip), vehicle: saline 103 % of control | dose: 400.0 mg/kg/injection, schedule: Q01DX001 (ip), vehicle: suspension in saline 108 % of control and 87 % of control

CN(C)c1ccc(/C=C/c2ccnc3ccccc23)cc1N
inactive: dose: 6.25 mg/kg/injection, schedule: Q01DX009 (ip), vehicle: Klucel (hydroxypropylcellulose) (HPC) 98 % of control | dose: 12.5 mg/kg/injection, schedule: Q01DX009 (ip), vehicle: Klucel (hydroxypropylcellulose) (HPC) 93 % of control | dose: 25.0 mg/kg/injection, schedule: Q01DX009 (ip), vehicle: Klucel (hydroxypropylcellulose) (HPC) 90 % of control | [1] 109 % of control

O=C(O)/C=C/C(=O)NNc1nc2ccccc2s1
inactive: [4] 97 % of control | [5] 96 % of control | [6] 89 % of control

CCCOC(=O)c1ccc(NC(=O)Nc2ccc(C(=O)OCC)cc2)cc1
inactive: [4] 87 % of control | [5] 90 % of control | [6] 88 % of control

COC(=O)CC/C=N/NC(N)=O
inactive: [7] 96 % of control | [8] 114 % of control | [9] 114 % of control

CCOC(=O)c1c(C)[nH]oc1=O
inactive: dose: 25.0 mg/kg/injection, schedule: Q01DX009 (ip), vehicle: saline sonified 109 % of control | dose: 50.0 mg/kg/injection, schedule: Q01DX009 (ip), vehicle: saline sonified 100 % of control | dose: 100.0 mg/kg/injection, schedule: Q01DX009 (ip), vehicle: saline sonified 100 % of control

O=C(C=C(C(F)(F)F)C(F)(F)F)c1ccccc1[N+](=O)[O-]
inactive: dose: 1.32 mg/kg/injection, schedule: Q04DX003 (ip), vehicle: other 109 % of control | dose: 2.0 mg/kg/injection, schedule: Q04DX003 (ip), vehicle: other 100 % of control | dose: 3.0 mg/kg/injection, schedule: Q04DX003 (ip), vehicle: other 109 % of control | dose: 4.5 mg/kg/injection, schedule: Q04DX003 (ip), vehicle: other 104 % of control | dose: 6.25 mg/kg/injection, schedule: Q04DX003 (ip), vehicle: other 109 % of control | dose: 25.0 mg/kg/injection, schedule: Q04DX003 (ip), vehicle: other 86 % of control

CCCCNC(=O)Nc1cccc2c(O)cccc12
inactive: dose: 6.25 mg/kg/injection, schedule: Q01DX009 (ip), vehicle: DMSO 94 % of control | dose: 12.5 mg/kg/injection, schedule: Q01DX009 (ip), vehicle: DMSO 87 % of control | dose: 25.0 mg/kg/injection, schedule: Q01DX009 (ip), vehicle: DMSO 87 % of control

BrC1C2CCC3OC3C12 (centres undefined)
inactive: [10] 104 % of control | [11] 103 % of control

COC(=O)CCSC(=S)NCc1ccccc1
inactive: [16] 98 % of control | [17] 96 % of control | [18] 102 % of control

COc1cc(C2CC(C)(OC)Oc3cc4c(cc32)OCO4)cc(OC)c1O (centres undefined)
inactive: dose: 15.0 mg/kg/injection, schedule: Q01DX005 (ip), vehicle: saline with Tween-80 90 % of control | dose: 30.0 mg/kg/injection, schedule: Q01DX005 (ip), vehicle: saline with Tween-80 88 % of control | [10] 89 % of control

COC(=O)/C=C1\Sc2ccccc2NC1=O
inactive: dose: 50.0 mg/kg/injection, schedule: Q01DX009 (ip), vehicle: saline with Tween-80 96 % of control | dose: 100.0 mg/kg/injection, schedule: Q01DX009 (ip), vehicle: saline with Tween-80 96 % of control | dose: 200.0 mg/kg/injection, schedule: Q01DX009 (ip), vehicle: saline with Tween-80 94 % of control

CCCCCCCCCCNC(=O)C[n+]1cccc(C(=O)NCc2ccccc2)c1
inactive: dose: 3.13 mg/kg/injection, schedule: Q01DX009 (ip), vehicle: saline with Tween-80 100 % of control | dose: 6.25 mg/kg/injection, schedule: Q01DX009 (ip), vehicle: saline with Tween-80 95 % of control | dose: 12.5 mg/kg/injection, schedule: Q01DX009 (ip), vehicle: saline with Tween-80 90 % of control

CC1CCC2(OC1)OC1CC3C4CC=C5CC(O)CCC5(C)C4CCC3(C)C1C2C (centres undefined)
inactive: [16] 100 % of control | [17] 89 % of control | [18] 86 % of control

CC(C)(O)C(=O)N/N=C/c1ccc(Cl)cc1
inactive: [10] 101 % of control | [11] 99 % of control | [12] 100 % of control

O=C(Nc1ccc(N=C=S)cc1Cl)c1cc(Cl)cc(Cl)c1O
inactive: [1] 119 % of control | [2] 122 % of control
